Columns and labels:
HRECs [1] = test: Stability of tight junctions (TJs) at cell-cell contacts in VEGF-treated HRECs, anti-occludin immunostaining; assay type: cell-based, human; conditions: 10 μg/mL 1 hour, then 20 ng/mL VEGF 1 hour
Experimental: In FIG. 8a, confluent HRECs were pretreated with Sac0601 (panel A in FIG. 8a) or Sac0504 (panel B in FIG. 8a) for 60 minutes before treating with 20 ng/ml. VEGF (1 hr). The cells were then stained with occludin antibody.
(§1) Confluent HRECs were treated with 10 μg/mL Sac0601 (FIG. 8a, panel A) or Sac0504 (FIG. 8a, panel B) for 1 hour and then with 20 ng/mL. VEGF for 1 hour. Subsequently, the cells were fixed at room temperature for 20 minutes with 4% paraformaldehyde and permeabilized with 0:1% Triton X-100/PBS. Then, the cells were incubated in PBS blocking solution containing 5% normal goat serum and 0.05% Tween-20. The cells were then reacted with anti-occludin antibody (Zymed Laboratories Inc.). The result was visualized with fluorescein-conjugated anti-mouse antibody (Vector Lab.). Also, western blotting was conducted for the cell lysate. The cell lysate was fractionated with SDS-PAGE and then transferred to polyvinyl difluoride membrane. The blocked membrane was reacted with anti-occludin antibody (Zymed Laboratories Inc.) and the immune response band was visualized with the chemiluminescence reagent obtained from Amersham Biosciences, Inc.

HUVECs = test: VEGF-induced actin stress fibers in HUVECs, rhodamine phalloidin staining; assay type: cell-based, human; conditions: 10 μg/mL pretreatment 1 hour, 20 ng/mL VEGF
Experimental: Confluent HUVECs were pretreated with the compounds (10 μg/mL) for 60 minutes before treating with 20 ng/mL VEGF (1 hr). The cells were then stained with rhodamine phalloidin.
It is known that the change in the actin structure of the cytoskeleton is closely related with the permeability of vascular endothelial cells. Increased permeability of vascular endothelial cells leads to increased formation of actin stress fibers and decrease of cortical actin ring structures. Based on this, the ability of inhibiting vascular endothelial permeability of the synthesized Rk1 derivatives was screened. Confluent HUVECs were pretreated with the synthesized compounds (10 μg/mL) for 1 hour before treating with 20 ng/mL VEGF (Upstate Biotechnology). Subsequently, the cells were fixed with 4% paraformaldehyde for 20 minutes at room temperature and washed 3 times with PBS (pH 7.4). Then, the cells were permeabilized with 0.1% Triton X-100/PBS and reacted with 0.1 mg/mL rhodamine phalloidin (Molecular Probes) for 1 hour. Then, the cells were observed under a fluorescence microscope (Olympus).

HRECs [2] = test: DNA fragmentation in serum-depleted HRECs; assay type: cell-based, human; conditions: serum-free medium, 0.1-10 μg/mL, 48 hours
Experimental: HRECs (3×10^4 cells/well) were seeded on a 24-well plate in M199 medium containing 20% fetal bovine serum. The next day, the cells were transferred to a medium containing 0.1-10 μg/mL Sac0601 (FIG. 6a) or 0.1-10 μg/mL Sac0504 (FIG. 6b). DNA fragmentation was analyzed by TUNEL assay 48 hours later.
In addition, chromosomal fragmentation and nicking characteristic of apoptosis were monitored, HRECs (3×10^4 cells/well) were seeded on a 24-well plate in M199 medium (1 mL) containing 20% fetal bovine serum, Next day, the cells were transferred to serum-free M199 medium containing 0.1-10 μg/mL Sac0601 (FIG. 6a) or 0.1-10 μg/mL Sac0504 (FIG. 6b). 48 hours later, the cells were washed twice with PBS, fixed with 2% paraformaldehyde, and washed twice with PBS again, After adding 4′,6-diamidino-2-phenylindole-2HCl (DAPI; Calbiochem, USA) solution and reacting for 30 minutes in the dark, the cells were washed twice with PBS and degree of DNA fragmentation was observed under an optical microscope after covering with a cover glass.

HRECs [3] = test: VEGF-induced actin stress fibers in HRECs, rhodamine phalloidin staining; assay type: cell-based, human; conditions: 10 μg/mL 1 hour, then 20 ng/mL VEGF 1 hour
Experimental: Confluent HRECs were treated with 10 μg/mL Sac0601 or Sac0504 for 1 hour and then with 20 ng/mL VEGF for 1 hour. Subsequently, the cells were fixed at room temperature for 20 minutes with 4% paraformaldehyde and washed 3 times with PBS (pH 7.4). Then, the cells were permeabilized with 0.1% Triton X-100/PBS and reacted with 0.1 mg/mL rhodamine phalloidin (Molecular Probes) for 1 hour. Then, the cells were observed under a fluorescence microscope (Olympus). […] The analysis of actin cytoskeleton was conducted also for the compounds synthesized in Synthesis Example 5. Both Sac0904 and Sac0902 exerted effects in a concentration-dependent manner on the actin cytoskeleton which is closely related with vascular permeability (FIG. 7c).

occludin = test: Occludin western blotting of HREC lysate; assay type: cell-based, human; conditions: HRECs, pretreatment 60 minutes, then 20 ng/mL VEGF 1 hour
Experimental: In FIG. 8b, confluent HRECs were pretreated with Sac0601 (10 μg/mL) for 60 minutes before treating with 20 ng/mL VEGF (1 hr). Then, cell lysate was subjected to western blotting using anti-occludin antibody.
as §1

C57/BL6 mouse = test: Vascular leakage induced by VEGF in mouse retina, FITC-dextran; assay type: in vivo; conditions: VEGF 50 ng and compound 10 μg into the vitreous body, 24 hours
Experimental: VEGF (50 ng) and Sac0601 (10 μg) were injected into the vitreous body of C57/BL6 mouse. An excipient (DMSO) was injected into the other eye. 24 hours after the injection, 100 μL FITC-dextran (30 mg/mL in PBS, Sigma) was injected into the left ventricle. After waiting for about 2 minutes for circulation of the tracer, the eyes were taken out and fixed immediately in 4% PFA, Then, the retina was taken out and observed under an optical microscope.

In the case of CC(C)CCC[C@@H](C)[C@H]1CC[C@H]2[C@@H]3CC=C4C[C@@H](OC5CCCCO5)CC[C@]4(C)[C@H]3CC[C@]12C (stereo partly shown) [Sac0504], the “redistribution of TJs into the cytoplasm or destabilizing at the cell membrane induced by VEGF” value (HRECs [1]) is reported as “could be inhibited”, the “stability of TJs between cells” value (HRECs [1]) is reported as “enhanced” and the “cortical actin ring structure” value (HUVECs) is reported as “increased the cortical actin ring structure”. The “formation of actin stress fibers induced by VEGF” value (“formation … by VEGF” below) (HUVECs) was “inhibited the formation of actin stress fibers induced by VEGF”, the DNA fragmentation (HRECs [2]) was “inhibit DNA fragmentation” and the “formation … by VEGF” value (HRECs [3]) was “inhibited the formation of actin stress fibers induced by VEGF”. For the same compound, the “formation of cortical actin ring structures” value (HRECs [3]) was “increased the formation of cortical actin ring structures”.
With CC(=O)OCC1OC(OC2CCC3(C)C(=CCC4C3CCC3(C)C(C(C)CCCC(C)C)CCC43)C2)C=CC1OC(C)=O (stereo not shown) [Sac0601] the “redistribution of TJs into the cytoplasm or destabilizing at the cell membrane induced by VEGF” value (HRECs [1]) was “could be inhibited”, the “stability of TJs between cells” value (HRECs [1]) was “more effective in enhancing the stability of TJs than Sac0504” and the “cortical actin ring structure” value (HUVECs) was “increased the cortical actin ring structure”. For the same compound, the “formation … by VEGF” value (HUVECs) was “inhibited the formation of actin stress fibers induced by VEGF”, the DNA fragmentation (HRECs [2]) was “inhibit DNA fragmentation” and the “occludin (western blotting)” value (occludin) was “results in decrease of occludin”. The “formation … by VEGF” value (HRECs [3]) was “inhibited the formation of actin stress fibers induced by VEGF”, the “formation of cortical actin ring structures” value (HRECs [3]) was “increased the formation of cortical actin ring structures” and the “vascular leakage induced by VEGF” value (C57/BL6 mouse) was “greatly decreases”.
